US7749982B2, “Complex containing mequitazine, a cyclodextrin and an interaction agent” (Pierre Fabre Medicament, priority 2004, dated 2010)

Key:
[1] = Mequitazine solubilization test (2 g/l in water, HPLC assay); format: physicochemical
Experimental: In the sense of the present invention, “rate of solubilization” means the percentage of solubilized mequitazine after stirring a mixture of water and mequitazine for 15 minutes at 37° C. A mixture of 2 g/l of mequitazine in water is usually used to measure this rate. This solubilization can be measured by a solubilization test as indicated below.
The mequitazine content in the dissolution solutions is measured by HPLC:
In a 100 ml Erlenmeyer flask, place a test sample equivalent to 100 mg of mequitazine. Add 50 ml of ultrapure water. […] Place under magnetic stirring at 400 rpm in a water bath at 37° C.±2° C. Remove a 2 ml sample under magnetic stirring at 15 minutes. Filter the sample on a 0.45 μm Gelman GHP Acrodisc polypropylene filter. The solution must be limpid. Dilute the sample to 1/200 in a phase: water/acetonitrile (50/50).
Deduce concentration X in μg/ml by following the regression line of the controls.
Calculate the concentration in μg/ml of solubilized mequitazine by multiplying by the inverse of the dilution made (i.e., 200).
The rate of solubility of mequitazine is calculated by dividing the concentration of solubilized mequitazine by the total concentration of mequitazine in the starting solution. […]
The solubility and the rates of solubilization of mequitazine only or mequitazine in physical mixtures are measured as indicated above in the “mequitazine solubilization test”. […]

[2] = Bioavailability of mequitazine administered by oral route; details: in vivo
Text: As for many pharmaceutically active ingredients, the absorption of mequitazine administered by oral route takes place in the intestine. […] A very small portion of the mequitazine ingested is in solubilized form, and thus it is absorbed with difficulty through the intestinal barrier.

Structure (SMILES): c1ccc2c(c1)Sc1ccccc1N2CC1CN2CCC1CC2 (stereo not drawn) [mequitazine]
- solubility (in words) ([1]; acid pH range from 2 to 6): high solubility
- solubility (in words) ([1]; pH 9): very low solubility
- bioavailability [2]: ~0.3%
